Experimental findings from US20150191469A1, “COMPOUNDS AND METHODS FOR TREATING HIV” (priority 2012, published 2015) are described below.

Read-outs that look alike come from different tables or passages of the source.

The subject of this test is HIV. Description: MT4 assay: antiviral HIV activity (cell protection, cell titer glo readout at 96 hours). The format is cell-based. Conditions: MT4 cells, cell titer glo readout at 96 hours, 10 point dose response, read-out: HIV MT4 Assay IC50. An outline of the steps: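 MT-4 cells infected with HIV, with inhibition readout by CellTiter-Glo luminescence at 96 h relative to no-compound control. Cytotoxicity measured in parallel under the same conditions. IC50 from a 10-point, 3-4-fold dilution series spanning >1000-fold, fitted with a four-parameter logistic equation.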
(Cellular ATP, detected with luciferase, serves as a proxy for viable cell number.)

Setting [1] is: Human immunodeficiency virus 1, MT4, 96 h.

By IC50 is commonly meant the midpoint of a concentration-inhibition curve. As for `Cc1nc2c(cc(-c3nnc(N4CCC(OC(C)C)CC4)o3)n2C)c(-c2cc(F)c3c(c2C)CCCO3)c1[C@H](OC(C)(C)C)C(=O)O` [Example 323], the 50% inhibitory concentration (IC50) under setting [1] is 5.2 nM.
Still for that read-out and setting: in the case of `Cc1nc2c(cc(-c3ccnc(N4CCCN(C(=O)C(C)C)CC4)c3)n2C)c(-c2cc(F)c3c(c2C)CCCO3)c1[C@H](OC(C)(C)C)C(=O)O` (atropisomer, axis not shown) [Example 102] it was 45 nM; in that of `Cc1nc2c(cc(-c3ccnc(N4CCCN(C5(C)COC5)CC4)c3)n2C)c(-c2cc(F)c3c(c2C)CCCO3)c1[C@H](OC(C)(C)C)C(=O)O` (atropisomer, axis not shown) [Example 128], 10.3 nM.
The same measure, in the same setting: in the case of `Cc1nc2c(cc(-c3ccnc(C(=O)NCc4ccc(F)cc4)c3)n2C)c(-c2cc(F)c3c(c2C)CCCO3)c1[C@H](OC(C)(C)C)C(=O)O` (atropisomer, axis not shown) [Example 151] it was 43.6 nM.
The same measure, in the same setting: in the case of `Cc1nc2c(cc(-c3ccnc(-c4ccc5c(cnn5C)c4)c3)n2C)c(-c2cc(F)c3c(c2C)CCCO3)c1[C@H](OC(C)(C)C)C(=O)O` (atropisomer, axis not shown) [Example 57] it was 1.4 nM; in that of `Cc1nc2c(cc(C(=O)NCC(C)C)n2C)c(-c2cc(F)c3c(c2C)CCCO3)c1[C@H](OC(C)(C)C)C(=O)O` [Example 246], 15.1 nM; in that of `Cc1nc2c(cc(-c3cc(N4C[C@@H](C)O[C@@H](C)C4)ncn3)n2C)c(-c2cc(F)c3c(c2C)CCCO3)c1[C@H](OC(C)(C)C)C(=O)O` (racemic) [Example 364], 10.9 nM.
Regarding `CCO[C@H](C(=O)O)c1c(C)nc2c(cc(-c3nnc(-c4ccc5c(cnn5C)c4)o3)n2C)c1-c1cc(F)c2c(c1C)CCCO2` [Example 439], the concentration for half-maximal inhibition (IC50) under setting [1] stood at 3 nM.
On to `Cc1nc2c(cc(C(=O)N3CCCC3)n2C)c(-c2cc(F)c3c(c2C)CCCO3)c1[C@H](OC(C)(C)C)C(=O)O` [Example 250], for which the concentration for half-maximal inhibition (IC50) under setting [1] is 40.1 nM.
Still for that read-out and setting: in the case of `Cc1nc2c(cc(-c3nc(-c4ccc5c(cnn5C)c4)nn3C)n2C)c(-c2cc(F)c3c(c2C)CCCO3)c1[C@H](OC(C)(C)C)C(=O)O` [Example 141] it was 149 nM.
Turning to `Cc1nc2c(cc(C(=O)N3[C@@H]4CC[C@H]3CC(N3CCOCC3)C4)n2C)c(-c2cc(F)c3c(c2C)CCCO3)c1[C@H](OC(C)(C)C)C(=O)O` (some centres unmarked) [Example 222], under setting [1], the half-maximal inhibitory concentration (IC50) turned out to be 376 nM.
`Cc1nc2c(cc(/C=C/C(=O)NCC3CC3)n2C)c(-c2cc(F)c3c(c2C)CCCO3)c1[C@H](OC(C)(C)C)C(=O)O` [Example 415]: under setting [1], the IC50 turned out to be 40.1 nM.
Still for that read-out and setting: in the case of `Cc1nc2c(cc(C(=O)C(=O)NCc3ccccc3)n2C)c(-c2cc(F)c3c(c2C)CCCO3)c1[C@H](OC(C)(C)C)C(=O)O` (atropisomer, axis not shown; (M)) [Example 420, (2S)(M)-2-(-2-(2-(benzylamino)-2-oxoacetyl)-4-(8-fluoro-5-methylchroman-6-yl)-1,6-dimethyl-1H-pyrrolo[2,3-b]pyridin-5-yl)-2-(tert-butoxy)acetic acid] it was 94.6 nM.
Turning to `Cc1nc2c(cc(-c3ccnc(-c4ccc5cn(C)nc5c4)c3)n2C)c(-c2cc(F)c3c(c2C)CCCO3)c1[C@H](OC(C)(C)C)C(=O)O` (atropisomer, axis not shown) [Example 53], the half-maximal inhibitory concentration (IC50) under setting [1] is 2.1 nM.
Still for that read-out and setting: next, `COC[C@@H]1CCCN1c1nnc(-c2cc3c(-c4cc(F)c5c(c4C)CCCO5)c([C@H](OC(C)(C)C)C(=O)O)c(C)nc3n2C)o1` [Example 349]: 3 nM; `Cc1nc2c(cc(-c3ccnc(-c4cnc5[nH]ccc5c4)c3)n2C)c(-c2cc(F)c3c(c2C)CCCO3)c1[C@H](OC(C)(C)C)C(=O)O` (atropisomer, axis not shown) [Example 62]: 2.9 nM.
Still for that read-out and setting: in the case of `Cc1nc2c(cc(-c3nc(N4CCN(C(C)C)CC4)ns3)n2C)c(-c2cc(F)c3c(c2C)CCCO3)c1[C@H](OC(C)(C)C)C(=O)O` [Example 400] it was 6.3 nM; in that of `Cc1nc2c(cc(-c3nnc(N4CCN(C5CCOCC5)[C@@H](C)C4)o3)n2C)c(-c2cc(F)c3c(c2C)CCCO3)c1[C@H](OC(C)(C)C)C(=O)O` [Example 335], 10.1 nM; in that of `Cc1nc2c(cc(-c3ccnc(C#CC4(N)CCCCC4)c3)n2C)c(-c2cc(F)c3c(c2C)CCCO3)c1[C@H](OC(C)(C)C)C(=O)O` (atropisomer, axis not shown) [Example 156], 39.8 nM.
The same measure, in the same setting: next, `Cc1nc2c(cc(C(=O)N(CCC(C)C)CCC(C)C)n2C)c(-c2cc(F)c3c(c2C)CCCO3)c1[C@H](OC(C)(C)C)C(=O)O` [Example 202]: 92.8 nM.
With `Cc1nc2c(cc(/C=C/C(=O)NCC3CCCCC3)n2C)c(-c2cc(F)c3c(c2C)CCCO3)c1[C@H](OC(C)(C)C)C(=O)O` [Example 414], under setting [1], the IC50 came out at 17 nM.
In the case of `Cc1nc2c(cc(-c3nnc(N4CCCOCC4)o3)n2C)c(-c2cc(F)c3c(c2C)CCCO3)c1[C@H](OC(C)(C)C)C(=O)O` [Example 350], the IC50 under setting [1] was 11.9 nM.
Turning to `Cc1nc2c(cc(-c3ccnc(N4CCN5CCC4C5)c3)n2C)c(-c2cc(F)c3c(c2C)CCCO3)c1[C@H](OC(C)(C)C)C(=O)O` (some centres unmarked) [Example 123], under setting [1], the IC50 amounted to 164 nM.
On to `Cc1nc2c(cc(C(=O)N3CCC(F)(F)CC3)n2C)c(-c2cc(F)c3c(c2C)CCCO3)c1[C@H](OC(C)(C)C)C(=O)O` [Example 181], for which the 50% inhibitory concentration (IC50) under setting [1] was 42 nM.
Consider `Cc1nc2c(cc(-c3cnn(C4CCN(C5COC5)CC4)c3)n2C)c(-c2cc(F)c3c(c2C)CCCO3)c1[C@H](OC(C)(C)C)C(=O)O` (atropisomer, axis not shown) [Example 133], for which the half-maximal inhibitory concentration (IC50) under setting [1] came to 104 nM.
Same read-out and setting: in the case of `Cc1nc2c(cc(C(=O)NCc3cccc(F)c3)n2C)c(-c2cc(F)c3c(c2C)CCCO3)c1[C@H](OC(C)(C)C)C(=O)O` [Example 265] it was 4.8 nM; in that of `Cc1nc2c(cc(C(=O)NCCc3ccccc3)n2C)c(-c2cc(F)c3c(c2C)CCCO3)c1[C@H](OC(C)(C)C)C(=O)O` [Example 212], 28.8 nM.
As for `Cc1nc2c(cc(-c3nnc(N4CCCN(C5COC5)CC4)o3)n2C)c(-c2cc(F)c3c(c2C)CCCO3)c1[C@H](OC(C)(C)C)C(=O)O` [Example 302], the concentration for half-maximal inhibition (IC50) under setting [1] was 44.2 nM.
For the compound `Cc1nc2c(cc(-c3cncc(N4CCN(C5CCOCC5)CC4)c3)n2C)c(-c2cc(F)c3c(c2C)CCCO3)c1[C@H](OC(C)(C)C)C(=O)O` [Example 361], under setting [1], the half-inhibitory concentration (IC50) turned out to be 14.7 nM.
Regarding `Cc1nc2c(cc(-c3nc(N4CCC5(CC4)OCCO5)ns3)n2C)c(-c2cc(F)c3c(c2C)CCCO3)c1[C@H](OC(C)(C)C)C(=O)O` [Example 377], the half-maximal inhibitory concentration (IC50) under setting [1] is 5.9 nM.
Same read-out and setting: next, `Cc1nc2c(cc(-c3ccnc(-c4ccc(N(C)C)nc4)c3)n2C)c(-c2cc(F)c3c(c2C)CCCO3)c1[C@H](OC(C)(C)C)C(=O)O` (atropisomer, axis not shown) [Example 69]: 4.8 nM.
Same read-out and setting: in the case of `Cc1nc2c(cc(C(=O)N3CCN(c4ccncc4)CC3)n2C)c(-c2cc(F)c3c(c2C)CCCO3)c1[C@H](OC(C)(C)C)C(=O)O` [Example 169] it was 1240 nM.
With `Cc1nc2c(cc(C(=O)NCCC(C)C)n2C)c(-c2cc(F)c3c(c2C)CCCO3)c1[C@H](OC(C)(C)C)C(=O)O` [Example 268], under setting [1], the IC50 is 3.4 nM.
The same measure, in the same setting: next, `Cc1nc2c(cc(C(=O)NCc3ccc(F)cc3)n2C)c(-c2cc(F)c3c(c2C)CCCO3)c1[C@H](OC(C)(C)C)C(=O)O` [Example 230]: 4.7 nM.
On the same count and under the same terms, next, `Cc1nc2c(cc(-c3cnn(CC4CN(C(=O)OC(C)(C)C)C4)c3)n2C)c(-c2cc(F)c3c(c2C)CCCO3)c1[C@H](OC(C)(C)C)C(=O)O` [Example 186]: 41.1 nM; `Cc1nc2c(cc(-c3ccnc(-c4ccc5c(cnn5C)c4)c3)n2C)c(-c2ccc3c(c2Cl)NCCO3)c1[C@H](OC(C)(C)C)C(=O)O` [Example 422]: 1.5 nM; `Cc1nc2c(cc(-c3nc(NC4CCOCC4)ns3)n2C)c(-c2cc(F)c3c(c2C)CCCO3)c1[C@H](OC(C)(C)C)C(=O)O` [Example 407]: 25.4 nM.
The same measure, in the same setting: in the case of `Cc1cnc(CNC(=O)c2cc3c(-c4cc(F)c5c(c4C)CCCO5)c([C@H](OC(C)(C)C)C(=O)O)c(C)nc3n2C)cn1` [Example 211] it was 121 nM; in that of `Cc1nc2c(cc(C(=O)NCc3c(F)cccc3Cl)n2C)c(-c2cc(F)c3c(c2C)CCCO3)c1[C@H](OC(C)(C)C)C(=O)O` [Example 257], 2 nM.
With `Cc1nc2c(cc(-c3nc(N4CCC4)ns3)n2C)c(-c2cc(F)c3c(c2C)CCCO3)c1[C@H](OC(C)(C)C)C(=O)O` [Example 403], the IC50 under setting [1] came to 12.9 nM.
For `Cc1nc2c(cc(C(=O)NC(C)(C)c3ccccc3)n2C)c(-c2cc(F)c3c(c2C)CCCO3)c1[C@H](OC(C)(C)C)C(=O)O` [Example 195], the IC50 under setting [1] is 26 nM.
The same measure, in the same setting: in the case of `Cc1nc2c(cc(CN3CC[C@@H](NC(=O)c4ccc5c(cnn5C)c4)C3)n2C)c(-c2cc(F)c3c(c2C)CCCO3)c1[C@H](OC(C)(C)C)C(=O)O` [Example 293] it was 44.3 nM; in that of `Cc1nc2c(cc(C(=O)N3CCC(C)(C)CC3)n2C)c(-c2cc(F)c3c(c2C)CCCO3)c1[C@H](OC(C)(C)C)C(=O)O` [Example 258], 31.4 nM; in that of `Cc1nc2c(cc(-c3ccnc(C#CCN4CCN(C)CC4)c3)n2C)c(-c2cc(F)c3c(c2C)CCCO3)c1[C@H](OC(C)(C)C)C(=O)O` (atropisomer, axis not shown) [Example 160], 150 nM.
Same read-out and setting: in the case of `Cc1nc2c(cc(-c3ccnc(-c4ccc5c(cnn5C)c4)c3)n2C)c(-c2ccc(Cl)cc2)c1[C@H](OC(C)(C)C)C(=O)O` [Example 15, (2S)-2-(tert-butoxy)-2-[4-(4-chlorophenyl)-1,6-dimethyl-2-[2-(1-methyl-1H-indazol-5-yl)pyridin-4-yl]-1H-pyrrolo[2,3-b]pyridin-5-yl]acetic acid] it was 13.7 nM; in that of `Cc1nc2c(cc(-c3nc(N4CCN5CCC[C@H]5C4)ns3)n2C)c(-c2cc(F)c3c(c2C)CCCO3)c1[C@H](OC(C)(C)C)C(=O)O` [Example 383], 4.1 nM.
As for `Cc1nc2c(cc(-c3nc(N4CCN(C5CCOCC5)CC4)ns3)n2C)c(-c2cc(F)c3c(c2C)CCCO3)c1[C@H](OC(C)(C)C)C(=O)O` [Example 379], the IC50 came to 208 nM.
